Experimental data reported in ChEMBL document CHEMBL1201862, “PubChem BioAssay data set” (2004).
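Protocol summary: plate cells (96-well), add compound at 5 concentrations, incubate 48 h, interpolate endpoints linearly. Abbreviation: GI50, concentration required for 50% inhibition of growth.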 The source made the active and inactive calls. No stated cut-off is given here; in the data, active = GI50 up to about 1.1 µM and inactive = higher.

Experiments:
Assay in all cases: NCI anticancer screen, dose series, 48 h
HL-60 = system: HL-60
SF-539 = system: SF-539
A549 = system: A549
HT-29 = system: HT-29
SF-295 = system: SF-295
OVCAR-5 = system: OVCAR-5
M14 = system: M14
KM-20L2 = system: KM-20L2
NCI-H460 = system: NCI-H460
NCI-H23 = system: NCI-H23
U-251 = system: U-251
SK-MEL-2 = system: SK-MEL-2
UO-31 = system: UO-31
SK-OV-3 = system: SK-OV-3
LOX IMVI = system: LOX IMVI
SK-MEL-28 = system: SK-MEL-28
HCT-15 = system: HCT-15
SNB-78 = system: SNB-78
TK-10 = system: TK-10
SK-MEL-5 = system: SK-MEL-5
HOP-18 = system: HOP-18
SN12C = system: SN12C
ACHN = system: ACHN
OVCAR-4 = system: OVCAR-4
Malme-3M = system: Malme-3M
RXF 393 = system: RXF 393
M19-MEL = system: M19-MEL
LXFL 529 = system: LXFL 529
UACC-62 = system: UACC-62
DLD-1 = system: DLD-1
SW-620 = system: SW-620
HCC 2998 = system: HCC 2998
UACC-257 = system: UACC-257
OVCAR-3 = system: OVCAR-3
HOP-62 = system: HOP-62
HOP-92 = system: HOP-92
KM12 = system: KM12
XF498 = system: XF498
NCI-H522 = system: NCI-H522
MOLT-4 = system: MOLT-4
OVCAR-8 = system: OVCAR-8
K562 = system: K562
EKVX = system: EKVX
IGROV-1 = system: IGROV-1
SR = system: SR
CCRF-CEM = system: CCRF-CEM
SNB-75 = system: SNB-75
RPMI-8226 = system: RPMI-8226
CAKI-1 = system: CAKI-1
NCI-H226 = system: NCI-H226
SF-268 = system: SF-268
COLO 205 = system: COLO 205
786-0 = system: 786-0
HCT-116 = system: HCT-116
DMS-114 = system: DMS-114
SNB-19 = system: SNB-19
MDA-N = system: MDA-N
DMS-273 = system: DMS-273
MDA-MB-435 = system: MDA-MB-435
MCF7 = system: MCF7
T47D = system: T47D
PC-3 = system: PC-3
Hs-578T = system: Hs-578T
DU-145 = system: DU-145
NCI/ADR-RES = system: NCI/ADR-RES
MDA-MB-231 = system: MDA-MB-231
A498 = system: A498

Measured: GI50

OCc1nnn2c1CCC2
inactive: HL-60 > 100 µM | SF-539 > 100 µM | A549 > 100 µM | HT-29 > 100 µM | SF-295 > 100 µM | OVCAR-5 > 100 µM | M14 > 100 µM | KM-20L2 > 100 µM | NCI-H460 > 100 µM | NCI-H23 > 100 µM | U-251 > 100 µM | SK-MEL-2 > 100 µM | UO-31 > 100 µM | SK-OV-3 > 100 µM | LOX IMVI > 100 µM | SK-MEL-28 > 100 µM | SNB-78 > 100 µM | TK-10 > 100 µM | SK-MEL-5 > 100 µM | HOP-18 > 100 µM | SN12C > 100 µM | ACHN > 100 µM | OVCAR-4 76 µM | Malme-3M > 100 µM | RXF 393 > 100 µM | M19-MEL > 100 µM | LXFL 529 > 100 µM | UACC-62 > 100 µM | DLD-1 > 100 µM | SW-620 > 100 µM | HCC 2998 > 100 µM | UACC-257 > 100 µM | OVCAR-3 > 100 µM | HOP-62 > 100 µM | HOP-92 > 100 µM | KM12 > 100 µM | XF498 > 100 µM | NCI-H522 > 100 µM | MOLT-4 > 100 µM | OVCAR-8 > 100 µM | K562 > 100 µM | EKVX > 100 µM | IGROV-1 > 100 µM | SR > 100 µM | CCRF-CEM > 100 µM | SNB-75 > 100 µM
> 100 µM: HCT-15

Cc1cc2c(=O)cc(-c3ccc(Cl)c(Cl)c3)oc2c(C(=O)O)c1C
inactive: RPMI-8226 > 100 µM | CAKI-1 > 100 µM | SF-539 > 100 µM | A549 > 100 µM | NCI-H226 > 100 µM | HT-29 > 100 µM | SF-295 > 100 µM | OVCAR-5 > 100 µM | M14 > 100 µM | KM-20L2 > 100 µM | NCI-H460 > 100 µM | NCI-H23 > 100 µM | U-251 > 100 µM | SK-MEL-2 > 100 µM | UO-31 > 100 µM | SK-OV-3 > 100 µM | SF-268 > 100 µM | LOX IMVI > 100 µM | SK-MEL-28 > 100 µM | SNB-78 > 100 µM | TK-10 > 100 µM | SK-MEL-5 > 100 µM | HOP-18 > 100 µM | SN12C > 100 µM | ACHN > 100 µM | OVCAR-4 > 100 µM | Malme-3M > 100 µM | RXF 393 76.6 µM | M19-MEL > 100 µM | LXFL 529 > 100 µM | UACC-62 > 100 µM | DLD-1 > 100 µM | SW-620 > 100 µM | COLO 205 > 100 µM | 786-0 > 100 µM | UACC-257 > 100 µM | OVCAR-3 > 100 µM | KM12 > 100 µM | XF498 > 100 µM | NCI-H522 > 100 µM | MOLT-4 > 100 µM | OVCAR-8 > 100 µM | K562 > 100 µM | HCT-116 > 100 µM | EKVX > 100 µM | IGROV-1 > 100 µM | CCRF-CEM > 100 µM | SNB-75 92.3 µM | DMS-114 > 100 µM | SNB-19 > 100 µM
> 100 µM: HCT-15

C/C=C1\NC(=O)[C@H]2CSSCCC=C[C@H](CC(=O)N[C@H](C(C)C)C(=O)N2)OC(=O)[C@H](C(C)C)NC1=O
0.0331 µM: HCT-15
active: MDA-N 0.0217 nM | RPMI-8226 0.000147 µM | DMS-273 0.00673 µM | CAKI-1 0.00159 µM | SF-539 6.98e-05 µM | A549 0.000148 µM | NCI-H226 0.000123 µM | HT-29 0.000131 µM | SF-295 0.000117 µM | MDA-MB-435 10 pM | M14 0.000299 µM | KM-20L2 0.00288 µM | NCI-H460 0.00124 µM | MCF7 0.0222 nM | NCI-H23 0.000125 µM | UO-31 0.00731 µM | SF-268 0.000318 µM | T47D 0.0439 nM | SK-MEL-28 9.98e-05 µM | PC-3 0.0488 nM | SNB-78 0.0446 µM | TK-10 0.000226 µM | SK-MEL-5 6.65e-05 µM | HOP-18 0.00412 µM | SN12C 0.000174 µM | ACHN 0.00452 µM | OVCAR-4 0.00201 µM | Hs-578T 0.0361 nM | DU-145 0.0455 nM | RXF 393 0.0008 µM | M19-MEL 0.00252 µM | NCI/ADR-RES 0.0619 µM | UACC-62 0.000188 µM | DLD-1 0.0217 µM | SW-620 0.000153 µM | HCC 2998 < 0.01 µM | MDA-MB-231 0.0243 nM | OVCAR-3 0.000412 µM | HOP-62 9.79e-05 µM | HOP-92 0.000366 µM | KM12 0.000154 µM | XF498 0.00285 µM | MOLT-4 0.000134 µM | A498 0.00015 µM | OVCAR-8 0.000255 µM | HCT-116 9.2e-05 µM | EKVX 0.00102 µM | CCRF-CEM 0.000117 µM | SNB-75 0.000207 µM | DMS-114 0.00291 µM | SNB-19 0.000116 µM

Cc1nc2ccccc2c(=O)n1/N=C(\N=N\c1cc(Cl)ccc1Cl)c1ccc(N(C)C)cc1
> 100 µM: HCT-15
inactive: HL-60 22.9 µM | RPMI-8226 26.2 µM | DMS-273 38.5 µM | CAKI-1 34 µM | SF-539 33 µM | A549 > 100 µM | HT-29 42 µM | KM-20L2 > 100 µM | NCI-H460 45.7 µM | NCI-H23 34.8 µM | U-251 38.1 µM | UO-31 22.9 µM | SK-OV-3 28.2 µM | SF-268 41.5 µM | LOX IMVI 63.4 µM | SK-MEL-28 > 100 µM | TK-10 88.3 µM | SK-MEL-5 27.2 µM | HOP-18 75.9 µM | SN12C 58.6 µM | ACHN 71.8 µM | RXF 393 27.2 µM | M19-MEL > 100 µM | LXFL 529 29.9 µM | UACC-62 34.5 µM | DLD-1 62.7 µM | SW-620 > 100 µM | COLO 205 78.3 µM | 786-0 73.5 µM | HOP-62 26.9 µM | XF498 2.79 µM | NCI-H522 25 µM | MOLT-4 25.2 µM | A498 60.4 µM | OVCAR-8 40.9 µM | K562 57.1 µM | HCT-116 32.3 µM | EKVX 45.3 µM | IGROV-1 49.9 µM | CCRF-CEM 52.7 µM | DMS-114 22.8 µM | SNB-19 33.3 µM
